In patent US20230149516A1, “USE OF PEPTIDYLGLYCINE ALPHA-AMIDATING MONOOXYGENASE (PAM) FOR THERAPEUTIC PURPOSE” (PAM THERAGNOSITICS GMBH, priority 2020, published 2023):
Blank lines part the entries; values can stand above or below the molecule they belong to.

Legend:
[1] = target: T1, adrenomedullin-Gly (ADM-Gly) (UniProt P35318)
T1 sequence: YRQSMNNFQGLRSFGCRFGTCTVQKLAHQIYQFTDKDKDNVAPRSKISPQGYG

bio-ADM = assay: Circulating bio-ADM concentration in rats after intravenous injection of PAM, ascorbate or both; format: in vivo, Wistar rats
PAM activity = assay: Circulating PAM activity in rats after intravenous injection of PAM, ascorbate or both, measured without exogenous ascorbate; format: in vivo, Wistar rats
[2] = target: T2, circulating human PAM activity (Homo sapiens, UniProt P19021); assay: Amidating activity in healthy human volunteers after oral ascorbate uptake, measured without exogenous ascorbate; format: in vivo; details: 2000 mg oral single dose
T2 construct: Human serum or Li-Heparin plasma from self-reported healthy volunteers was used as source of human native PAM; from tissue; host or cells: Li-heparin plasma and serum of healthy human volunteers
T2 sequence (P19021 31-973): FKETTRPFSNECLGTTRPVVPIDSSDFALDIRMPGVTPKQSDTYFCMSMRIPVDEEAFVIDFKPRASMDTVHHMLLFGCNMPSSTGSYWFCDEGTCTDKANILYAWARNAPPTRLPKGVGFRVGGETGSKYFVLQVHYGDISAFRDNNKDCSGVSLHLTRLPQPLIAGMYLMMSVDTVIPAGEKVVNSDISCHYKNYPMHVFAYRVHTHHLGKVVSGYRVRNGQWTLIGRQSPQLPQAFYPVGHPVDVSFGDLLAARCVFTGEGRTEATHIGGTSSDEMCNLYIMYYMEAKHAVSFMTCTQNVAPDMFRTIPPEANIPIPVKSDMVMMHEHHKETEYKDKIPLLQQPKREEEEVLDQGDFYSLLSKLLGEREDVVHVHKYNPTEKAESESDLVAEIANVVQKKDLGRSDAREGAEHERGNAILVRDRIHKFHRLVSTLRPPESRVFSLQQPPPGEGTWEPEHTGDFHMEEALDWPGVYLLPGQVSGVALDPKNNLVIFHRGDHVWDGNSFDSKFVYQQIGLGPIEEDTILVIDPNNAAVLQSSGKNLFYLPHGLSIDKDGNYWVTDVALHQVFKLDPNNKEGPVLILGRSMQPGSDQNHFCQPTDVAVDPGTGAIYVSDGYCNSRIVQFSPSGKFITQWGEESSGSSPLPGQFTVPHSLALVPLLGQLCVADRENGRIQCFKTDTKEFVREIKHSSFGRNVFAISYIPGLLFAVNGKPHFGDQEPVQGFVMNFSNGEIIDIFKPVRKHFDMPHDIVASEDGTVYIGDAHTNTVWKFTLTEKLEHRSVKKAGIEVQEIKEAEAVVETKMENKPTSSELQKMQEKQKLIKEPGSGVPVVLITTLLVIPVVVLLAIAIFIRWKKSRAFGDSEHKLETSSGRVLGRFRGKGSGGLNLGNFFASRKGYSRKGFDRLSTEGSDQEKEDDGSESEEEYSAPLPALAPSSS
Procedure: FIG. 23: Amidating activity in healthy human volunteers before (0 h) and after oral ascorbate uptake measured without addition of exogenous ascorbate. AMA at t=0 h was set as 100%.
Human serum or Li-Heparin plasma from self-reported healthy volunteers was used as source of human native PAM. Each sample (20 μl) was diluted two-fold in 100 mM Tris-HCl in duplicate. The amidation reaction was initiated by addition of 160 μl of PAM-reaction buffer (100 mM Tris-HCl, pH 7.5, 6.25 μM CuSO4, 2.5 mM L-ascorbate, 125 μg/mL catalase, 62.5 μM amastatin, 250 μM leupeptin, 36 ng/mL synthetic ADM-Gly and 375 μg/mL NT-ADM antibody). Afterwards, 100 μl of each individual reaction of duplicated samples were combined and transferred into 20 μl of 200 mM EDTA to terminate the amidation reaction and to generate t=0 minutes reaction time-point followed by incubation at 37° C. for 40 minutes. Afterwards the non-terminated reactions were stopped with 10 μl of 200 mM EDTA. To determine the PAM activity, bio-ADM as reaction product was quantified in each sample using the Sphingotest® bio-ADM immunoassay (Weber et al. 2017). The amidation assay was calibrated using a 6-point calibration curve generated with human recombinant PAM of known activity. Samples and calibrators were treated in the same manner. Relative light units (RLU t40 min-t0 min) determined via Sphingotest® bio-ADM immunoassay for each sample were fitted against the RLU (t40 min-t0 min) of the calibrator to determine the PAM activity in the samples. PAM activity is described as “adrenomedullin maturation activity” (AMA) in μg bio-ADM formed per hour and L of sample.
Healthy volunteers (n=4) received 2000 mg of vitamin C (Dr. Scheffler, Additiva® Vitamin C) as an oral single dose. Blood sampling was performed prior to- and 1, 2 and 3 hours post administration. Basal amidating activity was determined from Li-heparin plasma and serum as described in example 3 in absence of exogenous ascorbate addition and is shown in FIG. 23.

[3] = target: T3, adrenomedullin-Gly (ADM-Gly), P35318
T3 chain: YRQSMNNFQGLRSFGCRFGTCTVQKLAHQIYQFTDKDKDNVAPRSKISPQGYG

Molecule: native human PAM in human plasma or serum
- formation of bio-ADM (Sphingotest bio-ADM immunoassay) in human Li-Heparin plasma [1]: When ADM-Gly was added to the sample, a linear formation of bio-ADM was detected within 90 minutes
- formation of bio-ADM from endogenous ADM-Gly in human Li-Heparin plasma [1]: endogenous human PAM enzyme is capable of the conversion of endogenous human ADM-Gly to bioADM in a time-dependent manner

- PAM activity elevated by the factor compared to prior to ascorbate uptake ([2]; 1 h after uptake): 1.7
- PAM activity elevated by the factor compared to prior to ascorbate uptake ([2]; 2 h post uptake): ~2
- PAM activity elevated by the factor compared to prior to ascorbate uptake ([2]; 3 h post uptake): ~2
Molecule: O=C1O[C@H]([C@@H](O)CO)C(O)=C1O [Ascorbate, vitamin C, reference compound]
- bio-ADM concentration elevated by the factor (normalized to placebo) (bio-ADM; after 15 min): 1.4
- bio-ADM concentration elevated by the factor (normalized to placebo) (bio-ADM; after 30 min): 1.4
- bio-ADM concentration elevated by the factor (normalized to placebo) (bio-ADM; after 45 min): 1.2
- bio-ADM concentration elevated by the factor (normalized to placebo) (bio-ADM; after 60 min): returned to baseline levels
- bio-ADM concentration compared to the Placebo group (bio-ADM; after 120 minutes): not significantly different
- PAM activity compared to placebo group (PAM activity; 120 min past injection): comparable to PAM activity in the placebo group
- time of maximal elevation of PAM activity past injection (PAM activity; single i.v. injection): 15 min
- elevation of circulating PAM activity (PAM activity; single i.v. injection of 500 μl (PAM 50 μg/mL, ascorbate 40 mg/mL), vs placebo): non-significant elevation
- time PAM activity remained elevated after injection (PAM activity; single i.v. injection, significantly elevated for PAM and the combination): 60 min

B1: recombinant human PAM (peptidylglycine alpha-amidating monooxygenase, amino acids 21-834, C-terminal hexa-histidine tag linked via a GS linker) (protein)
chain: SPLSVFKRFKETTRPFSNECLGTTRPVVPIDSSDFALDIRMPGVTPKQSDTYFCMSMRIPVDEEAFVIDFKPRASMDTVHHMLLFGCNMPSSTGSYWFCDEGTCTDKANILYAWARNAPPTRLPKGVGFRVGGETGSKYFVLQVHYGDISAFRDNNKDCSGVSLHLTRLPQPLIAGMYLMMSVDTVIPAGEKVVNSDISCHYKNYPMHVFAYRVHTHHLGKVVSGYRVRNGQWTLIGRQSPQLPQAFYPVGHPVDVSFGDLLAARCVFTGEGRTEATHIGGTSSDEMCNLYIMYYMEAKHAVSFMTCTQNVAPDMFRTIPPEANIPIPVKSDMVMMHEHHKETEYKDKIPLLQQPKREEEEVLDQGDFYSLLSKLLGEREDVVHVHKYNPTEKAESESDLVAEIANVVQKKDLGRSDAREGAEHERGNAILVRDRIHKFHRLVSTLRPPESRVFSLQQPPPGEGTWEPEHTGDFHMEEALDWPGVYLLPGQVSGVALDPKNNLVIFHRGDHVWDGNSFDSKFVYQQIGLGPIEEDTILVIDPNNAAVLQSSGKNLFYLPHGLSIDKDGNYWVTDVALHQVFKLDPNNKEGPVLILGRSMQPGSDQNHFCQPTDVAVDPGTGAIYVSDGYCNSRIVQFSPSGKFITQWGEESSGSSPLPGQFTVPHSLALVPLLGQLCVADRENGRIQCFKTDTKEFVREIKHSSFGRNVFAISYIPGLLFAVNGKPHFGDQEPVQGFVMNFSNGEIIDIFKPVRKHFDMPHDIVASEDGTVYIGDAHTNTVWKFTLTEKLEHRSVKKAGIEVQEIKEAEAVVGSHHHHHH
- bio-ADM synthesis rate [3]: by an averaged factor of 1.8 at each time-point
